Assay results as given in patent publication US8178506B2, “Oligomeric compounds and compositions for use in modulation of small non-coding RNAs” (Regulus Therapeutics Inc., priority 2003, dated 2012).
In the oligonucleotide strings, read from the 5' end, every base follows the letter of its sugar. An asterisk marks phosphorothioate; unmarked linkages are phosphodiester. Other units and linkages are bracketed, terminal groups are in braces. A string of capitals states the bases alone. e = 2'-O-(2-methoxyethyl) (MOE); [5mC] = 5-methylcytosine; d = 2'-deoxy (DNA)

Assays:
Type in all cases: cell-based, human
adipocytes = assay: Triglyceride accumulation assay in adipocytes; conditions: for TG: Table 20, adipocyte differentiation assay as in Example 13
Glut4 = Glut4 mRNA expression in adipocytes (real-time PCR); conditions: for Glut4: Table 20, adipocyte differentiation assay as in Example 13
HSL = HSL mRNA expression in adipocytes (real-time PCR); conditions: for HSL: Table 20, adipocyte differentiation assay as in Example 13
PPARγ = PPARγ mRNA expression in adipocytes (real-time PCR); conditions: for PPAR gamma: Table 20, adipocyte differentiation assay as in Example 13
aP2 = aP2 mRNA expression in adipocytes (real-time PCR); conditions: for aP2 mRNA: Table 75; for AP2: Table 20, adipocyte differentiation assay as in Example 13
[1] = Table 17, differentiating adipocytes, control = treatment with ISIS 342673
[2] = differentiating adipocytes transfected with oligomeric compound, Table 75
[3] = differentiating adipocytes transfected with oligomeric compound
[4] = Table 18, differentiating adipocytes, control = treatment with ISIS 342673

328129 (antisense eA*eG*e[5mC]*e[5mC]*eT*e[5mC]*e[5mC]*eT*eT*e[5mC]*eT*eT*e[5mC]*eT*e[5mC]*eG*eT*eA*e[5mC]*eT*eA) [compound 328129]
TG (triglyceride accumulation) (adipocytes; [1]): 53.8 percentage of control | TG (triglyceride accumulation) (adipocytes; [2]): 19 percentage of untreated control (UTC) | GLUT4 mRNA (Glut4; [1]): 60.0 percentage of control | GLUT4 mRNA (Glut4; [2]): 36 percentage of untreated control (UTC) | HSL mRNA (HSL; [1]): 56.5 percentage of control | HSL mRNA (HSL; [2]): 34 percentage of untreated control (UTC) | PPAR gamma mRNA (PPARγ; [1]): 71.8 percentage of control | PPAR gamma mRNA (PPARγ; [2]): 59 percentage of untreated control (UTC) | AP2 mRNA (aP2; [1]): 67.6 percentage of control | aP2 mRNA (aP2; [3]): 54 percentage of untreated control (UTC)

328133 (eT*eG*eA*eA*eG*eG*eT*eT*e[5mC]*eG*eG*eA*eG*eA*eT*eA*eG*eG*e[5mC]*eT*eA; anti-miR) [compound 328133]
TG (triglyceride accumulation) (adipocytes; [1]): 61.2 percentage of control | TG (triglyceride accumulation) (adipocytes; [2]): 43 percentage of untreated control (UTC) | GLUT4 mRNA (Glut4; [1]): 91.9 percentage of control | GLUT4 mRNA (Glut4; [2]): 59 percentage of untreated control (UTC) | HSL mRNA (HSL; [1]): 63.0 percentage of control | HSL mRNA (HSL; [2]): 49 percentage of untreated control (UTC) | PPAR gamma mRNA (PPARγ; [1]): 63.8 percentage of control | PPAR gamma mRNA (PPARγ; [2]): 53 percentage of untreated control (UTC) | AP2 mRNA (aP2; [1]): 69.5 percentage of control | aP2 mRNA (aP2; [3]): 66 percentage of untreated control (UTC)

328136 (eA*eA*e[5mC]*eT*eA*e[5mC]*eT*eT*e[5mC]*e[5mC]*eA*eG*eA*eG*e[5mC]*eA*eG*eG*eT*eG*eA; anti-miR) [compound 328136]
TG (triglyceride accumulation) (adipocytes; [1]): 47.0 percentage of control | TG (triglyceride accumulation) (adipocytes; [2]): 26 percentage of untreated control (UTC) | GLUT4 mRNA (Glut4; [1]): 66.7 percentage of control | GLUT4 mRNA (Glut4; [2]): 35 percentage of untreated control (UTC) | HSL mRNA (HSL; [1]): 65.0 percentage of control | HSL mRNA (HSL; [2]): 37 percentage of untreated control (UTC) | PPAR gamma mRNA (PPARγ; [1]): 72.7 percentage of control | PPAR gamma mRNA (PPARγ; [2]): 54 percentage of untreated control (UTC) | AP2 mRNA (aP2; [1]): 73.0 percentage of control | aP2 mRNA (aP2; [3]): 57 percentage of untreated control (UTC)

328137 (eG*eT*eA*eA*eG*e[5mC]*eG*e[5mC]*eA*eG*e[5mC]*eT*e[5mC]*e[5mC]*eA*e[5mC]*eA*eG*eG*e[5mC]*eT; anti-miR) [compound 328137]
TG (triglyceride accumulation) (adipocytes; [1]): 83.2 percentage of control | TG (triglyceride accumulation) (adipocytes; [2]): 37 percentage of untreated control (UTC) | GLUT4 mRNA (Glut4; [1]): 88.5 percentage of control | GLUT4 mRNA (Glut4; [2]): 29 percentage of untreated control (UTC) | HSL mRNA (HSL; [1]): 86.3 percentage of control | HSL mRNA (HSL; [2]): 25 percentage of untreated control (UTC) | PPAR gamma mRNA (PPARγ; [1]): 85.7 percentage of control | PPAR gamma mRNA (PPARγ; [2]): 36 percentage of untreated control (UTC) | AP2 mRNA (aP2; [1]): 99.6 percentage of control | aP2 mRNA (aP2; [3]): 45 percentage of untreated control (UTC)

328138 (eG*eA*eG*e[5mC]*eT*eG*e[5mC]*eT*e[5mC]*eA*eG*e[5mC]*eT*eG*eG*e[5mC]*e[5mC]*eA*eT*e[5mC]*eA; anti-miR) [compound 328138]
TG (triglyceride accumulation) (adipocytes; [1]): 100.6 percentage of control | TG (triglyceride accumulation) (adipocytes; [2]): 80 percentage of untreated control (UTC) | GLUT4 mRNA (Glut4; [1]): 86.8 percentage of control | GLUT4 mRNA (Glut4; [2]): 52 percentage of untreated control (UTC) | HSL mRNA (HSL; [1]): 89.8 percentage of control | HSL mRNA (HSL; [2]): 56 percentage of untreated control (UTC) | PPAR gamma mRNA (PPARγ; [1]): 83.8 percentage of control | PPAR gamma mRNA (PPARγ; [2]): 63 percentage of untreated control (UTC) | AP2 mRNA (aP2; [1]): 85.3 percentage of control | aP2 mRNA (aP2; [3]): 52 percentage of untreated control (UTC)

328362 (eT*eG*eT*eG*eT*dT*dT*dT*d[5mC]*dT*dG*dA*d[5mC]*dT*d[5mC]*eA*eG*eT*e[5mC]*eA) [compound 328362]
TG (triglyceride accumulation) (adipocytes; [3]): 73 percentage of untreated control (UTC) | GLUT4 mRNA (Glut4; [3]): 80 percentage of untreated control (UTC) | HSL mRNA (HSL; [3]): 83 percentage of untreated control (UTC) | PPAR gamma mRNA (PPARγ; [3]): 78 percentage of untreated control (UTC) | AP2 mRNA (aP2; [3]): 59 percentage of untreated control (UTC)

328382 (e[5mC]*eA*eG*eA*e[5mC]*dT*d[5mC]*d[5mC]*d[5mC]*dA*dA*d[5mC]*dT*dG*dA*e[5mC]*e[5mC]*eA*eG*eA) [compound 328382]
TG (adipocytes): 0.72 | Glut4 (Glut4): 0.85 | HSL (HSL): 0.75 | PPAR gamma (PPARγ): 0.96 | AP2 (aP2): 0.89

328677 (eT*e[5mC]*e[5mC]*eT*eG*dG*dA*dT*dG*dA*dT*dA*dT*d[5mC]*dT*eA*e[5mC]*e[5mC]*eT*e[5mC]; antisense) [compound 328677]
TG (triglyceride accumulation) (adipocytes; [3]): 34 percentage of untreated control (UTC) | GLUT4 mRNA (Glut4; [3]): 44 percentage of untreated control (UTC) | HSL mRNA (HSL; [3]): 68 percentage of untreated control (UTC) | PPAR gamma mRNA (PPARγ; [3]): 89 percentage of untreated control (UTC) | AP2 mRNA (aP2; [3]): 61 percentage of untreated control (UTC)

328685 (e[5mC]*eG*eG*e[5mC]*e[5mC]*dG*dG*dA*dG*d[5mC]*d[5mC]*dA*dT*dA*dG*eA*e[5mC]*eT*e[5mC]*eG; antisense) [compound 328685]
TG (triglyceride accumulation) (adipocytes; [3]): 50 percentage of untreated control (UTC) | GLUT4 mRNA (Glut4; [3]): 69 percentage of untreated control (UTC) | HSL mRNA (HSL; [3]): 100 percentage of untreated control (UTC) | PPAR gamma mRNA (PPARγ; [3]): 91 percentage of untreated control (UTC) | AP2 mRNA (aP2; [3]): 73 percentage of untreated control (UTC)

328691 (e[5mC]*e[5mC]*e[5mC]*e[5mC]*eA*dT*d[5mC]*dT*dT*dA*dG*d[5mC]*dA*dT*d[5mC]*eT*eA*eA*eG*eG) [compound 328691]
TG (triglyceride accumulation) (adipocytes; [3]): 130 percentage of untreated control (UTC) | GLUT4 mRNA (Glut4; [3]): 144 percentage of untreated control (UTC) | HSL mRNA (HSL; [3]): 156 percentage of untreated control (UTC) | PPAR gamma mRNA (PPARγ; [3]): 105 percentage of untreated control (UTC) | AP2 mRNA (aP2; [3]): 166 percentage of untreated control (UTC)

328759 (antisense eG*eA*eG*eG*eG*dA*dT*dT*dG*dT*dA*dT*dG*dA*dA*e[5mC]*eA*eT*e[5mC]*eT) [compound 328759]
TG (triglyceride accumulation) (adipocytes; [3]): 87 percentage of untreated control (UTC) | GLUT4 mRNA (Glut4; [3]): 66 percentage of untreated control (UTC) | HSL mRNA (HSL; [3]): 105 percentage of untreated control (UTC) | PPAR gamma mRNA (PPARγ; [3]): 95 percentage of untreated control (UTC) | AP2 mRNA (aP2; [3]): 108 percentage of untreated control (UTC)

338664 (antisense e[5mC]*eA*eG*eA*e[5mC]*eT*e[5mC]*e[5mC]*e[5mC]*eA*eA*e[5mC]*eT*eG*eA*e[5mC]*e[5mC]*eA*eG*eA) [compound 338664]
TG (adipocytes): 1.42 | Glut4 (Glut4): 1.81 | HSL (HSL): 0.76 | PPAR gamma (PPARγ): 0.86 | AP2 (aP2): 1.01

340350 (antisense TGCTCAATAAATACCCGTTGAA; all 2'-MOE, all phosphorothioate, methylation of C not given here) [compound 340350]
TG (triglyceride accumulation) (adipocytes; [2]): 38 percentage of untreated control (UTC) | GLUT4 mRNA (Glut4; [2]): 53 percentage of untreated control (UTC) | HSL mRNA (HSL; [2]): 45 percentage of untreated control (UTC) | PPAR gamma mRNA (PPARγ; [2]): 59 percentage of untreated control (UTC) | aP2 mRNA (aP2; [3]): 64 percentage of untreated control (UTC)

340927 (antisense eT*eG*eA*eG*e[5mC]*dT*dA*d[5mC]*dA*dG*dT*dG*d[5mC]*dT*dT*e[5mC]*eA*eT*e[5mC]*eT*e[5mC]*eA) [compound 340927]
TG (adipocytes): 0.65 | Glut4 (Glut4): 0.54 | HSL (HSL): 0.73 | PPAR gamma (PPARγ): 0.36 | AP2 (aP2): 0.77

341800 (antisense AAGCCCAAAAGGAGAAUUCUUUG; all 2'-MOE, all phosphorothioate, methylation of C and T or U not given here) [compound 341800]
TG (triglyceride accumulation) (adipocytes; [2]): 18 percentage of untreated control (UTC) | GLUT4 mRNA (Glut4; [2]): 28 percentage of untreated control (UTC) | HSL mRNA (HSL; [2]): 42 percentage of untreated control (UTC) | PPAR gamma mRNA (PPARγ; [2]): 61 percentage of untreated control (UTC) | aP2 mRNA (aP2; [3]): 50 percentage of untreated control (UTC)

341803 (antisense CCACACACTTCCTTACATTCCA; all 2'-MOE, all phosphorothioate, methylation of C not given here) [compound 341803]
TG (triglyceride accumulation) (adipocytes; [4]): 85.9 percentage of control | GLUT4 mRNA (Glut4; [4]): 86.8 percentage of control | GLUT4 mRNA (Glut4; [2]): 73 percentage of untreated control (UTC) | HSL mRNA (HSL; [4]): 75.5 percentage of control | HSL mRNA (HSL; [2]): 79 percentage of untreated control (UTC) | PPAR gamma mRNA (PPARγ; [4]): 71.2 percentage of control | PPAR gamma mRNA (PPARγ; [2]): 68 percentage of untreated control (UTC) | AP2 mRNA (aP2; [4]): 77.3 percentage of control | aP2 mRNA (aP2; [3]): 85 percentage of untreated control (UTC)

341804 (antisense ATCTGCACTGTCAGCACTTT; all 2'-MOE, all phosphorothioate, methylation of C not given here) [compound 341804]
TG (triglyceride accumulation) (adipocytes; [4]): 60.9 percentage of control | GLUT4 mRNA (Glut4; [4]): 73.6 percentage of control | GLUT4 mRNA (Glut4; [2]): 62 percentage of untreated control (UTC) | HSL mRNA (HSL; [4]): 71.6 percentage of control | HSL mRNA (HSL; [2]): 75 percentage of untreated control (UTC) | PPAR gamma mRNA (PPARγ; [4]): 74.1 percentage of control | PPAR gamma mRNA (PPARγ; [2]): 71 percentage of untreated control (UTC) | AP2 mRNA (aP2; [4]): 70.8 percentage of control | aP2 mRNA (aP2; [3]): 78 percentage of untreated control (UTC)
